Data on one molecule can be found in patent US20240245762A1, “METHODS AND PLATFORMS FOR PROMOTING ANTIGEN-SPECIFIC TOLERANCE IN THE TREATMENT OF TYPE 1 DIABETES AND GRAFT REJECTION AND COMPOSITIONS RELATING THERETO” (University of Maryland, College Park, priority 2021, published 2024).

The test relates to Eα presentation in MHC-II. Nature of the test: Immunohistochemistry of Eα presentation in MHC-II (Y-ae) around HEVs of LNs. In kind it is in vivo, mouse. The note with it: three daily i.p. injections starting on the day of MP treatment. The text has this: Immunohistochemistry and histology. The following antibodies were used for immunohistochemistry: ERTR7 (clone sc-73355), CD11c (cloneHL3), Laminin alpha4 (clone 775830), laminin alpha 5 (polyclonal), Foxp3 (clone NRRF-30), Vα2 TCR (clone B20.1). For immunohistochemistry, LNs and spleens were frozen with OCT compound (Scigen Tissue-Plus, Gardena, CA). Frozen sections were cut at 6 μm, fixed with cold acetone, blocked with 5% goat or donkey serum (Jackson ImmunoResearch, West Grove, PA) and incubated with the indicated antibodies and DAPI. […] Images were acquired with a Nikon Eclipse 700 (Nikon, Melville, NY, USA) and analyzed with Volocity image analysis software (Perkin Elmer, Waltham, MA). The positive staining area percentage was quantified based on at least three independent experiments with 3 sections per LN and 3-5 fields/section.
Subsequently, we directly investigated the trafficking and presentation of antigen from MPs in […] LNs using Y-ae, a recently-developed antibody tool. […] At 2 days, Eα presentation localized with HEVs was detected in treated LNs (FIG. 12f), and increased by day 6 (FIG. 12g). […]

Take `CCCCCCCCc1ccc(CCC(N)(CO)CO)cc1` [FTY720]: the “effect on Eα presentation after Eα MP or Eα/rapamycin MP treatment” value was “did not significantly affect Eα presentation”.
